Like-named read-outs stand apart in the source and are kept apart here.
Assays:
[1] = Phase 1 study Part 1: plasma pharmacokinetics after multiple oral doses of Compound 1 as AIC (QD×6 days) in healthy subjects; format: in vivo, human; settings: for AUC / concentration at 24 h / Cmax: geometric mean (geometric CV%); for AUC: read-out: AUC0-τ (τ = 24 hours); for concentration at 24 h: read-out: Cmin (plasma concentration at 24 hours postdose); for Cmax: healthy subjects
Protocol: Part 1 was an open label, multiple dose, three period, fixed sequence study to evaluate the effect of Compound 1 on JNK activity following UV irradiation.
On Day 1, after a minimum of an 8-hour fast, subjects received the first dose of Compound 1. All subjects received the following oral doses of Compound 1 in the fixed sequence below: • Treatment A: 60 mg Compound 1 as AIC, QD×6 days; • Treatment B: 160 mg Compound 1 as AIC, QD×6 days; and • Treatment C: 400 mg Compound 1 as AIC, QD×6 days.
All subjects received the following oral doses of Compound 1 as AIC: • Days 1 through 6: Treatment A: 60 mg Compound 1 AIC, QD×6 days; • Days 7 through 12: Treatment B: 160 mg Compound 1 AIC, QD×6 days; and • Days 13 through 18: Treatment C: 400 mg Compound 1 AIC, QD×6 days.
The treatments were administered in the morning following an overnight fast of at least 8 hours. All doses were administered with 240 mL of noncarbonated, room temperature water. Water was allowed as desired except for 1 hour before and 1 hour after drug administration. The first meal following the morning dose on the sixth day of each dosing period was 4 hours postdose. On all other dosing days, the next meal/snack was served after a minimum 2 hours after dosing.
Blood samples for Compound 1 plasma PK analysis were collected at the following time points on Days 6, 12, and 18: predose and 0.5, 2, 4, 6, 10, 12, and 24 hours postdose.
Concentrations of Compound 1 in plasma were measured using a validated liquid chromatography tandem mass spectrometry (LC-MS/MS) assay. In Part 2, concentrations of Compound 1 in whole blood were measured using a validated LC-MS/MS method.
Plasma and whole blood PK parameters were derived for Compound 1 by noncompartmental analysis. Actual sampling times were used in the calculation of PK parameters.
AUCτ: AUC from time zero to tau, where tau is the dosing interval.
Cmax: Maximum observed plasma concentration.
Cmin: Minimum observed plasma concentration.

[2] = tested on: UVB-induced phospho c-jun expression in skin; test: Phospho c-Jun immunohistochemistry of UVB-irradiated skin biopsies: quantitative analysis (integrated optical density); format: in vivo, human
Excerpt: A total of four skin biopsies were taken, one at baseline and one each on the sixth day of each treatment period.
On baseline (Day −1) and on the sixth day of each dosing period (Days 6, 12, and 18), the skin test sites were delineated on the subject's upper buttock between the beltline and the natal cleft on the right side. The right side of the buttock was divided into four different test sites, one site for 2×MED irradiation at baseline and each of the three dosing periods. Each test site was a minimum of 3 cm×3 cm. Subjects received 2×MED UV irradiation at baseline (Day −1) at approximately the same time that irradiation was scheduled on Days 6, 12, and 18, which was 2 hours postdose. Eight hours after UV irradiation (±10 minutes), a skin punch biopsy was taken from the UV exposure site. The biopsies were processed into tissue slides by a third party and analyzed by immunohistochemistry (IHC). This third party was blinded to the treatment periods (baseline and doses).
Phospho-c-Jun expression in biopsies was analyzed by IHC. Phospho-c-Jun IHC data were subjectively scored on a scale of 0 to 4 based on the intensity and number of epidermal keratinocyte nuclei stained within the tissue section by trained individuals blinded to treatment. The IHC was also analyzed by automated measurement of integrated optical density.
Phospho c-Jun IHC images were analyzed at Quintiles for integrated optical density of positive nuclear staining using Aperio imaging software (Leica Biosystems). The Phospho c-jun score (Optical Density Scale) reflects the percentage of nuclei with ‘3+’ staining intensity (the cutoff for determining positive staining) as determined by the Aperio nuclear phospho c-jun quantitative image analysis algorithm.

[3] = Solubility in water and SGF (24 hours, ambient temperature, HPLC/UV); format: physicochemical; settings: for solubility at 24 h: ambient temperature
Protocol: Solubility in Water and SGF: A portion of the sample was weighed into a 2 mL clear HPLC vial. […] The sample was removed from the shaker and pH measurement was performed using a calibrated pH meter. Then a portion of the sample was filtered using […] Nylon-membraned centrifuge tube filter at 14000 RPM for 5 min. The filtrate was analyzed using HPLC/UV with appropriate dilution. The filtered solid residues were analyzed using XRPD.
For solubility in SGF, the samples were prepared and assayed in the same procedures as mentioned above.

[4] = Solid state physical stability under stress conditions (XRPD); format: physicochemical; settings: XRPD vs initial material
Protocol: A portion of the sample was loaded to a 4 mL clear glass vial. Four samples were prepared for each salt. The vials (open) were stored under 4 different stress conditions, respectively.

[5] = human, plasma, Treatment A: 60 mg as AIC, oral QD×6 days, N=15
[6] = human, plasma, Treatment B: 160 mg as AIC, oral QD×6 days, N=15
[7] = human, plasma, Treatment C: 400 mg as AIC, oral QD×6 days, N=15
[8] = measured after 24 hours shaking

increase of systemic exposure (AUC and Cmax) with dose ([1]; dose increased from 60 mg to 400 mg, multiple oral doses): more than dose-proportional
half-life ([1]; human, plasma, oral, following multiple doses (60-400 mg QD), read-out: mean terminal half life): 14 to 21 h
AUC [1, 5]: 2290 ng·h/mL
concentration at 24 h [1, 5]: 22 ng/mL
Tmax ([1]; human, plasma, Treatment A: 60 mg as AIC, oral QD×6 days, median (minimum, maximum), N=15, read-out: Tmax): 1.95 h
AUC [1, 6]: 8560 ng·h/mL
concentration at 24 h [1, 6]: 65 ng/mL
Tmax ([1]; human, plasma, Treatment B: 160 mg as AIC, oral QD×6 days, median (minimum, maximum), N=15, read-out: Tmax): 1.95 h
AUC [1, 7]: 31300 ng·h/mL
concentration at 24 h [1, 7]: 212 ng/mL
Tmax ([1]; human, plasma, Treatment C: 400 mg as AIC, oral QD×6 days, median (minimum, maximum), N=15, read-out: Tmax): 1.97 h
Tmax ([1]; human, plasma, following single or multiple oral doses at the dose levels evaluated, postdose, read-out: median Tmax): 1 to 4 h
Cmax ([1]; human, Treatment A: 60 mg as AIC, oral QD×6 days, plasma, N=15): 419 ng/mL
Cmax ([1]; human, Treatment B: 160 mg as AIC, oral QD×6 days, plasma, N=15): 1460 ng/mL
Cmax ([1]; human, Treatment C: 400 mg as AIC, oral QD×6 days, plasma, N=15): 4460 ng/mL
pH of the solubility sample in SGF [3, 8]: (pH 2.20)
pH of the solubility sample in water [3, 8]: (pH 8.96)
solubility at 24 h ([3]; pH 2.2, thermodynamic from solid, simulated gastric fluid without pepsin, read-out: Solubility in SGF (equiv. to free base)): 7170 µg/mL
solubility at 24 h ([3]; pH 8.96, thermodynamic from solid, water, read-out: Solubility in water (equiv. to free base)): 18 µg/mL
Physical stability (open vial, 2 weeks) ([4]; 80° C./75% RH, listed as Compound 1 (free base)): physically stable
Physical stability (open vial, 2 weeks) ([4]; 80° C./75% RH, listed as Free base): no change
Physical stability (open vial, 2 weeks) ([4]; 80° C., listed as Compound 1 (free base)): physically stable
Physical stability (open vial, 2 weeks) ([4]; 80° C., listed as Free base): no change
Structure (SMILES): C[C@@H]1CC[C@@H](Nc2nc(NC(C)(C)C)ncc2C(N)=O)C[C@H]1O [Compound 1, 2-(tert-butylamino)-4-((1R,3R,4R)-3-hydroxy-4-methylcyclohexylamino)-pyrimidine-5-carboxamide]
change from baseline in phospho c-jun staining (integrated optical density) ([2]; 60 mg QD×6 days, biopsy 8 hours after 2×MED UVB): not decreased
percentage of subjects with a decrease in optical density score compared to baseline ([2]; 60 mg dose (4/14)): 29%
decrease from baseline in phospho c-jun staining (integrated optical density) ([2]; 160 mg QD×6 days, biopsy 8 hours after 2×MED UVB, p=0.18): 7.5%
percentage of subjects with a decrease in optical density score compared to baseline ([2]; 160 mg dose (11/13)): 85%
decrease from baseline in phospho c-jun staining (integrated optical density) ([2]; 400 mg QD×6 days, biopsy 8 hours after 2×MED UVB, p<0.0001): 29.5%
percentage of subjects with a decrease in optical density score compared to baseline ([2]; 400 mg dose (13/13)): 100%
inhibition of UVB-induced phospho c-jun expression in skin ([2]; 60, 160, 400 mg QD×6 days, automated quantitative image analysis): dose-dependent manner

From patent publication US10131639B2, “Formulations of 2-(tert-butylamino)-4-((1R,3R,4R)-3-hydroxy-4methylcyclohexylamino)-pyrimidine-5-carboxamide” (Signal Pharmaceuticals, LLC, priority 2014, dated 2018)
